# Reference: PMC4984800, “A first in man, dose-finding study of the mTORC1/mTORC2 inhibitor OSI-027 in patients with advanced solid malignancies” (British Journal of Cancer, 2016)
# Where two headings read alike, the source gives them in different places.
# Legend:
# [1] = First-in-human trial: pharmacokinetics in plasma and urine; assay type: in vivo; conditions: for AUC(0-t): read-out: AUC24hr
# Description: Blood and urine samples were collected at prespecified time points for 24 h after initial dose and at days 2–3 (S2) and after multiple doses on days 3–4 (S1) and 22–23 (S3) across dose levels. Predose samples were collected on days 8, 15 and 22. Urine samples were collected during cycle 1.
# Descriptive statistics were used to summarise the safety data, including all patients who received at least one dose of OSI-027. All patients who completed the pharmacokinetic sampling were included in the PK analyses, which used descriptive statistics to summarise AUC0–∞, AUC0–t, Cmax, Clast, Tmax, Tlast, %AUC extrapolated, T1/2, clearance (Cl/F) and volume of distribution (Vz/F). Exploratory analysis were planned to correlate pharmacodynamics and pharmacokinetics. Response to treatment was evaluated according to Response Evaluation Criteria in Solid Tumors (RECIST) ([Therasse et al, 2000]).
# [2] = system: tumour cell lines; parameters: method as in Bhagwat et al, 2011; Falcon et al, 2011; conditions: including models resistant to rapalogues, ref Bhagwat et al, 2011, Falcon et al, read-out: IC50 values in a broad panel of tumour cell lines; cited from earlier work
# [3] = human, plasma, oral, 35 mg, Schedule 3, 35 mg, Day 1, N=4, median (range)
# [4] = human, plasma, oral, 35 mg, Schedule 3, 35 mg, Day 22, N=4, median (range)
# [5] = human, plasma, oral, 40 mg, Schedule 2, 40 mg, N=3, median (range)
# [6] = human, plasma, oral, 40 mg, Schedule 3, 40mg, Day 1, N=6, median (range)
# [7] = human, plasma, oral, 40 mg, Schedule 3, 40mg, Day 22, N=4, median (range)
# [8] = human, plasma, oral, 45 mg, Schedule 1, 45 mg, Day 1, N=3, median (range)
# [9] = human, plasma, oral, 45 mg, Schedule 1, 45 mg, Day 3, N=3, median (range)
# [10] = human, plasma, oral, 50 mg, Schedule 3, 50 mg, Day 1, N=3, median (range)
# [11] = human, plasma, oral, 50 mg, Schedule 3, 50 mg, Day 22, N=1
# [12] = human, plasma, oral, 65 mg, Schedule 1, 65 mg, Day 1, N=3, median (range)
# [13] = human, plasma, oral, 65 mg, Schedule 1, 65 mg, Day 3, N=3, median (range)
# [14] = human, plasma, oral, 80 mg, Schedule 2, 80 mg, N=4, median (range)
# [15] = human, plasma, oral, 90 mg, Schedule 1, 90 mg, Day 1, N=14, median (range)
# [16] = human, plasma, oral, 90 mg, Schedule 1, 90 mg, Day 3, N=14, median (range)
# [17] = human, plasma, oral, 120 mg, Schedule 1, 120 mg, Day 1, N=14, median (range)
# [18] = human, plasma, oral, 120 mg, Schedule 1, 120 mg, Day 3, N=13, median (range)
# [19] = human, plasma, oral, 160 mg, Schedule 1, 160 mg, Day 1, N=5, median (range)
# [20] = human, plasma, oral, 160 mg, Schedule 1, 160 mg, Day 3, N=5, median (range)
# [21] = human, plasma, oral, 160 mg, Schedule 2, 160 mg, N=3, median (range)
# [22] = human, plasma, oral, 240 mg, Schedule 2, 240mg, N=15, median (range)
structure (smiles),measurement,setting,value
COc1cccc2cc(-c3nc([C@H]4CC[C@H](C(=O)O)CC4)n4ncnc(N)c34)[nH]c12 [OSI-027],half-life,"[1]; human, plasma, oral, 30 mg, Schedule 1, 30 mg, Day 3, N=3, median (range), read-out: T1/2 (converted)",10 h
same,AUC(0-inf),[1]; [3],20200 ng·h/mL
same,Cmax,[1]; [3],1590 ng/mL
same,half-life,"[1]; human, plasma, oral, 35 mg, Schedule 3, 35 mg, Day 1, N=4, median (range), read-out: T1/2 (converted)",7.24 h
same,Cmax,[1]; [4],2300 ng/mL
same,AUC(0-t),[1]; [4],31200 ng·h/mL
same,half-life,"[1]; human, plasma, oral, 35 mg, Schedule 3, 35 mg, Day 22, N=4, median (range), read-out: T1/2 (converted)",11.1 h
same,AUC(0-inf),[1]; [5],28600 ng·h/mL
same,Cmax,[1]; [5],2510 ng/mL
same,half-life,"[1]; human, plasma, oral, 40 mg, Schedule 2, 40 mg, N=3, median (range), read-out: T1/2 (converted)",12.4 h
same,AUC(0-inf),[1]; [6],77100 ng·h/mL
same,Cmax,[1]; [6],3140 ng/mL
same,half-life,"[1]; human, plasma, oral, 40 mg, Schedule 3, 40mg, Day 1, N=6, median (range), read-out: T1/2 (converted)",17.8 h
same,Cmax,[1]; [7],3000 ng/mL
same,AUC(0-t),[1]; [7],50100 ng·h/mL
same,half-life,"[1]; human, plasma, oral, 40 mg, Schedule 3, 40mg, Day 22, N=4, median (range), read-out: T1/2 (converted)",15.9 h
same,AUC(0-inf),[1]; [8],31100 ng·h/mL
same,Cmax,[1]; [8],2770 ng/mL
same,half-life,"[1]; human, plasma, oral, 45 mg, Schedule 1, 45 mg, Day 1, N=3, median (range), read-out: T1/2 (converted)",7.65 h
same,Cmax,[1]; [9],3850 ng/mL
same,AUC(0-t),[1]; [9],35200 ng·h/mL
same,half-life,"[1]; human, plasma, oral, 45 mg, Schedule 1, 45 mg, Day 3, N=3, median (range), read-out: T1/2 (converted)",9.14 h
same,AUC(0-inf),[1]; [10],46200 ng·h/mL
same,Cmax,[1]; [10],3040 ng/mL
same,half-life,"[1]; human, plasma, oral, 50 mg, Schedule 3, 50 mg, Day 1, N=3, median (range), read-out: T1/2 (converted)",10.3 h
same,Cmax,[1]; [11],1110 ng/mL
same,AUC(0-t),[1]; [11],17200 ng·h/mL
same,AUC(0-inf),[1]; [12],50000 ng·h/mL
same,Cmax,[1]; [12],4750 ng/mL
same,half-life,"[1]; human, plasma, oral, 65 mg, Schedule 1, 65 mg, Day 1, N=3, median (range), read-out: T1/2 (converted)",7.01 h
same,Cmax,[1]; [13],5550 ng/mL
same,AUC(0-t),[1]; [13],64400 ng·h/mL
same,half-life,"[1]; human, plasma, oral, 65 mg, Schedule 1, 65 mg, Day 3, N=3, median (range), read-out: T1/2 (converted)",8.46 h
same,AUC(0-inf),[1]; [14],52600 ng·h/mL
same,Cmax,[1]; [14],3890 ng/mL
same,half-life,"[1]; human, plasma, oral, 80 mg, Schedule 2, 80 mg, N=4, median (range), read-out: T1/2 (converted)",9.22 h
same,AUC(0-inf),[1]; [15],90300 ng·h/mL
same,Cmax,[1]; [15],5440 ng/mL
same,half-life,"[1]; human, plasma, oral, 90 mg, Schedule 1, 90 mg, Day 1, N=14, median (range), read-out: T1/2 (converted)",12.1 h
same,Cmax,[1]; [16],7010 ng/mL
same,AUC(0-t),[1]; [16],69600 ng·h/mL
same,half-life,"[1]; human, plasma, oral, 90 mg, Schedule 1, 90 mg, Day 3, N=14, median (range), read-out: T1/2 (converted)",12 h
same,AUC(0-inf),[1]; [17],87600 ng·h/mL
same,Cmax,[1]; [17],5590 ng/mL
same,half-life,"[1]; human, plasma, oral, 120 mg, Schedule 1, 120 mg, Day 1, N=14, median (range), read-out: T1/2 (converted)",10.2 h
same,Cmax,[1]; [18],5450 ng/mL
same,AUC(0-t),[1]; [18],54500 ng·h/mL
same,half-life,"[1]; human, plasma, oral, 120 mg, Schedule 1, 120 mg, Day 3, N=13, median (range), read-out: T1/2 (converted)",12.8 h
same,AUC(0-inf),[1]; [19],131000 ng·h/mL
same,Cmax,[1]; [19],9330 ng/mL
same,half-life,"[1]; human, plasma, oral, 160 mg, Schedule 1, 160 mg, Day 1, N=5, median (range), read-out: T1/2 (converted)",10.3 h
same,Cmax,[1]; [20],11000 ng/mL
same,AUC(0-t),[1]; [20],106000 ng·h/mL
same,half-life,"[1]; human, plasma, oral, 160 mg, Schedule 1, 160 mg, Day 3, N=5, median (range), read-out: T1/2 (converted)",11.9 h
same,AUC(0-inf),[1]; [21],267000 ng·h/mL
same,Cmax,[1]; [21],7620 ng/mL
same,half-life,"[1]; human, plasma, oral, 160 mg, Schedule 2, 160 mg, N=3, median (range), read-out: T1/2 (converted)",24.7 h
same,AUC(0-inf),[1]; [22],125000 ng·h/mL
same,Cmax,[1]; [22],8780 ng/mL
same,half-life,"[1]; human, plasma, oral, 240 mg, Schedule 2, 240mg, N=15, median (range), read-out: T1/2 (converted)",13.8 h
same,half-life,"[1]; human, plasma, oral, patients, estimate, based on the weekly dose schedule, read-out: half-life (converted)",~14 h
same,half-life,"[1]; human, plasma, oral, patients, range over groups, read-out: half-life, range",8 to 25 h
same,Tmax,"[1]; human, plasma, oral, patients, across dose levels",≤ 4 h
same,exposure versus dose,[1]; patients,dose proportional
same,"urinary excretion of unchanged OSI-027, range",[1]; patients,1–7%
same,half-life,"[1]; patients, estimate, based on the weekly dose schedule",14 h
same,IC50,[2],< 10 µM
